Laboratory results: US9732087B2, “Diamino-pyridine, pyrimidine, and pyridazine modulators of the histamine H4 receptor” (JANSSEN PHARMACEUTICA NV, priority 2008, dated 2017)
Structures can show the parent of a compound that is named as a salt.

target: human H4 receptor (Homo sapiens (Human), UniProt Q9H3N8); experiment: Binding assay on recombinant human histamine H4 receptor ([3H]histamine competition, SK-N-MC cell membranes); conditions: membranes harvested with 96 well Brandel system; [3H]histamine 10 nM; average of results; read-out: Brandel Ki
In short: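 Membranes from SK-N-MC cells stably or transiently transfected with human H4 receptor, prepared by homogenization and 30,000 g centrifugation in Tris/EDTA. Bound [3H]histamine separated by rapid filtration on PEI-treated GF/C filters, washed with ice-cold Tris/EDTA, counted by scintillation. '>' values denote highest concentration tested.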

Ki [µM] | Structure (SMILES)
0.0239 | CN[C@@H]1CCN(c2cnnc(NCC3CC3)c2)C1 [Example 99, N-(Cyclopropylmethyl)-5-[(3R)-3-(methylamino)pyrrolidin-1-yl]pyridazin-3-amine]
0.001 | CN[C@@H]1CCN(c2ccnc(NC3CC4CCC3C4)c2)C1 (stereo partly drawn) [Example 1, Bicyclo[2.2.1]hept-2-yl[4-((3R)-3-methylamino-pyrrolidin-1-yl)-pyridin-2-yl]amine dihydrochloride]
0.0315 | CN1CCN(c2ccnc(NC3CC4CCC3C4)n2)CC1 (stereo not shown) [Example 44, N-[Bicyclo[2.2.1]hept-2-yl]-4-(4-methylpiperazin-1-yl)pyrimidin-2-amine]
0.0262 | CC(C)CNc1nccc(N2CC(N)C2)n1 [Example 89, 4-(3-Aminoazetidin-1-yl)-N-(2-methylpropyl)pyrimidin-2-amine]
0.0005 | CN[C@@H]1CCN(c2ccnc(N[C@@H]3C[C@@H]4C[C@H]([C@H]3C)C4(C)C)c2)C1 [Example 10, 4-[(3R)-3-(Methylamino)pyrrolidin-1-yl]-N-[(1R,2R,3R,5S)-2,6,6-trimethylbicyclo[3.1.1]hept-3-yl]pyridin-2-amine]
0.0424 | N[C@@H]1CCN(c2ccnc(NC3CCOCC3)n2)C1 [Example 30, 4-[(3R)-3-Aminopyrrolidin-1-yl]-N-(tetrahydro-2H-pyran-4-yl)pyrimidin-2-amine]

same assay, conditions: membranes harvested with cell harvester; [3H]histamine 10 nM; average of results; read-out: Cell Harvester Ki

Structure (SMILES) | Ki [µM]
CN[C@@H]1CCN(c2cnnc(NCC3CC3)c2)C1 [Example 99, N-(Cyclopropylmethyl)-5-[(3R)-3-(methylamino)pyrrolidin-1-yl]pyridazin-3-amine] | 0.0239
CN[C@@H]1CCN(c2ccnc(NC3CC4CCC3C4)c2)C1 (stereo partly drawn) [Example 1, Bicyclo[2.2.1]hept-2-yl[4-((3R)-3-methylamino-pyrrolidin-1-yl)-pyridin-2-yl]amine dihydrochloride] | 0.0005
CC(C)(O)CNc1nccc(N2CCNCC2)n1 [Example 177, 2-Methyl-1-[(4-piperazin-1-ylpyrimidin-2-yl)amino]propan-2-ol] | 0.523
N[C@@H]1CCN(c2ccnc(NC3CCCCC3)n2)C1 [Example 181, 4-[(3R)-3-Aminopyrrolidin-1-yl]-N-cyclohexylpyrimidin-2-amine] | 0.00907
CN1CCN(c2ccnc(NCC3CCCC3)c2)CC1 [Example 236, N-(Cyclopentylmethyl)-4-(4-methylpiperazin-1-yl)pyridin-2-amine] | 0.0474
NC1CN(c2ccnc(NCc3ccc(F)cc3)n2)C1 [Example 92, 4-(3-Aminoazetidin-1-yl)-N-(4-fluorobenzyl)pyrimidin-2-amine] | 0.615
CNC1CN(c2ccnc(NC3CCOCC3)n2)C1 [Example 108, 4-[3-(Methylamino)azetidin-1-yl]-N-(tetrahydro-2H-pyran-4-yl)pyrimidin-2-amine] | 0.141
CN1CCN(c2ccnc(NCCCO)c2)CC1 [Example 216, 3-{[4-(4-Methylpiperazin-1-yl)pyridin-2-yl]amino}propan-1-ol] | 1.43
c1cc(N2CCCNCC2)nc(NC2CC3CCC2C3)n1 (stereo not shown) [Example 195, N-Bicyclo[2.2.1]hept-2-yl-4-(1,4-diazepan-1-yl)pyrimidin-2-amine] | 0.00775
CN1CCN(c2ccnc(NCC3CC3)n2)CC1 [Example 45, N-(Cyclopropylmethyl)-4-(4-methylpiperazin-1-yl)pyrimidin-2-amine] | 0.0071
CN[C@@H]1CCN(c2ccnc(NCC3CCCCC3)n2)C1 [Example 191, N-(Cyclohexylmethyl)-4-[(3R)-3-(methylamino)pyrrolidin-1-yl]pyrimidin-2-amine] | 0.00358
c1cc(N2CCNCC2)nc(NC2CC2)n1 [Example 112, N-Cyclopropyl-4-piperazin-1-ylpyrimidin-2-amine] | 0.236
CN[C@@H]1CCN(c2ccnc(NCC3CCCO3)n2)C1 (stereo partly drawn) [Example 81, [4-(3R)-(3-Methylamino-pyrrolidin-1-yl)-pyrimidin-2-yl]-(tetrahydro-furan-2-ylmethyl)-amine] | 0.0247
N[C@@H]1CCN(c2ccnc(NCCc3ccccc3)n2)C1 [Example 117, 4-[(3R)-3-Aminopyrrolidin-1-yl]-N-(2-phenylethyl)pyrimidin-2-amine] | 0.247
CN1CCN(c2ccnc(NC3C4C[C@H]5C[C@@H](C4)C[C@@H]3C5)c2)CC1 (stereo partly shown) [Example 207, Adamantan-2-yl-[4-(4-methyl-piperazin-1-yl)-pyridin-2-yl]-amine] | 0.191
CN1CCN(c2ccnc(NC3CC4CCC3C4)n2)CC1 (stereo not shown) [Example 44, N-[Bicyclo[2.2.1]hept-2-yl]-4-(4-methylpiperazin-1-yl)pyrimidin-2-amine] | 0.0857

Structure (SMILES) | Ki [µM]
CN[C@H]1CCN(c2ccnc(NC3C[C@H]4C[C@@H](C3C)C4(C)C)c2)C1 (stereo partly drawn) [Example 230, 4-[(3S)-3-(Methylamino)pyrrolidin-1-yl]-N-[(1S,5R)-2,6,6-trimethylbicyclo[3.1.1]hept-3-yl]pyridin-2-amine] | 0.276
N[C@@H]1CCN(c2ccnc(NCC3CCCCC3)n2)C1 [Example 197, 4-[(3R)-3-Aminopyrrolidin-1-yl]-N-(cyclohexylmethyl)pyrimidin-2-amine] | 0.0173
CC(C)CNc1nccc(N2CC(N)C2)n1 [Example 89, 4-(3-Aminoazetidin-1-yl)-N-(2-methylpropyl)pyrimidin-2-amine] | 0.0693
CN[C@H]1CCN(c2ccnc(NCc3ccccn3)c2)C1 [Example 229, 4-[(3S)-3-(Methylamino)pyrrolidin-1-yl]-N-(pyridin-2-ylmethyl)pyridin-2-amine] | > 10
CN[C@@H]1CCN(c2ccnc(N[C@@H]3C[C@@H]4C[C@H]([C@H]3C)C4(C)C)c2)C1 [Example 10, 4-[(3R)-3-(Methylamino)pyrrolidin-1-yl]-N-[(1R,2R,3R,5S)-2,6,6-trimethylbicyclo[3.1.1]hept-3-yl]pyridin-2-amine] | 0.0005
N[C@H]1CCN(c2ccnc(NC3CCCC3)n2)C1 [Example 160, 4-[(3S)-3-Aminopyrrolidin-1-yl]-N-cyclopentylpyrimidin-2-amine] | 0.0867
Cc1ccc(CNc2nccc(N3CC[C@@H](N)C3)n2)cc1 [Example 186, 4-[(3R)-3-Aminopyrrolidin-1-yl]-N-(4-methylbenzyl)pyrimidin-2-amine] | 0.691
Cc1ccc(CNc2nccc(N3CCN(C)CC3)n2)cc1 [Example 163] | 0.278
CN[C@H]1CCN(c2ccnc(NCC(C)(C)CO)n2)C1 [Example 158, 2,2-Dimethyl-3-({4-[(3S)-3-(methylamino)pyrrolidin-1-yl]pyrimidin-2-yl}amino)propan-1-ol] | 3.49
CC(C)(CO)CNc1nccc(N2CC3CCN[C@H]3C2)n1 (stereo in doubt) [Example 148, 3-({4-[(3aR,6aR)-Hexahydropyrrolo[3,4-b]pyrrol-5(1H)-yl]pyrimidin-2-yl}amino)-2,2-dimethylpropan-1-ol] | 0.25
OCCCNc1nccc(N2CCNCC2)n1 [Example 137, 3-[(4-Piperazin-1-ylpyrimidin-2-yl)amino]propan-1-ol] | 1.38
CN[C@H]1CCN(c2ccnc(NCCCO)n2)C1 [Example 152, 3-({4-[(3S)-3-(Methylamino)pyrrolidin-1-yl]pyrimidin-2-yl}amino)propan-1-ol] | 2.3
NC1CN(c2ccnc(NC3CC3)n2)C1 [Example 91, 4-(3-Aminoazetidin-1-yl)-N-cyclopropylpyrimidin-2-amine] | 0.182
N[C@@H]1CCN(c2ccnc(NC3CCOCC3)n2)C1 [Example 30, 4-[(3R)-3-Aminopyrrolidin-1-yl]-N-(tetrahydro-2H-pyran-4-yl)pyrimidin-2-amine] | 0.0918
c1nnc(NC2CC2)cc1N1C[C@H]2CCN[C@H]2C1 [Example 309, N-Cyclopropyl-5-[(3aR,6aR)-hexahydropyrrolo[3,4-b]pyrrol-5(1H)-yl]pyridazin-3-amine] | 1.6

Second part, the molecule after the results:

Ki [µM] | Structure (SMILES)
1.66 | CNC1CN(c2cnnc(NC3CCCC3)c2)C1 [Example 332, N-Cyclopentyl-5-[3-(methylamino)azetidin-1-yl]pyridazin-3-amine]
0.298 | CN[C@H]1CCN(c2cnnc(NCC3CC4CCC3C4)c2)C1 (stereo partly drawn) [Example 374, N-(Bicyclo[2.2.1]hept-2-ylmethyl)-5-[(3S)-3-(methylamino)pyrrolidin-1-yl]pyridazin-3-amine]
3.17 | CC(C)(O)CNc1cc(N2CC[C@H](N)C2)ccn1 [Example 273, 1-({4-[(3S)-3-Aminopyrrolidin-1-yl]pyridin-2-yl}amino)-2-methylpropan-2-ol]
0.798 | CNC1CN(c2cnnc(NC3CCCCC3)c2)C1 [Example 325, N-Cyclohexyl-5-[3-(methylamino)azetidin-1-yl]pyridazin-3-amine]
0.259 | CN[C@H]1CCN(c2cnnc(NCC(C)(C)C)c2)C1 [Example 385, N-(2,2-Dimethylpropyl)-5-[(3S)-3-(methylamino)pyrrolidin-1-yl]pyridazin-3-amine]
0.00996 | CNC1CN(c2ccnc(NC(C)(C)C)c2)C1 [Example 280, N-tert-Butyl-4-[3-(methylamino)azetidin-1-yl]pyridin-2-amine]
0.0793 | CN[C@@H]1CCN(c2cnnc(N[C@H](C)c3ccccc3)c2)C1 [Example 401, 5-[(3R)-3-(Methylamino)pyrrolidin-1-yl]-N-[(1R)-1-phenylethyl]pyridazin-3-amine]
> 10 | NC1CN(c2cnnc(NCc3ccccc3)c2)C1 [Example 329, 5-(3-Aminoazetidin-1-yl)-N-benzylpyridazin-3-amine]
0.417 | CN(CCN)c1cnnc(NCC2CCCC2)c1 [Example 303, N^5-(2-Aminoethyl)-N^3-(cyclopentylmethyl)-N^5-methylpyridazine-3,5-diamine]
0.00701 | N[C@@H]1CCN(c2ccnc(NC3CCCC3)c2)C1 [Example 292, 4-[(3R)-3-Aminopyrrolidin-1-yl]-N-cyclopentylpyridin-2-amine]
0.275 | c1nnc(NCC2CCCC2)cc1N1CCCNCC1 [Example 316, N-(Cyclopentylmethyl)-5-(1,4-diazepan-1-yl)pyridazin-3-amine]
0.585 | CN[C@H]1CCN(c2ccnc(NCc3ccccc3)c2)C1 [Example 237, N-Benzyl-4-[(3S)-3-(methylamino)pyrrolidin-1-yl]pyridin-2-amine]
0.634 | CN[C@H]1CCN(c2cnnc(NCC3CCC4CC3C4(C)C)c2)C1 (stereo partly drawn) [Example 394, N-[(6,6-Dimethylbicyclo[3.1.1]hept-2-yl)methyl]-5-[(3S)-3-(methylamino)pyrrolidin-1-yl]pyridazin-3-amine]
0.0642 | c1cc(N2C[C@H]3CCN[C@H]3C2)cc(NC23CC4CC(CC(C4)C2)C3)n1 [Example 296, Adamantan-1-yl-[4-(3aR,6aR)-(hexahydro-pyrrolo[3,4-b]pyrrol-5-yl)-pyridin-2-yl]-amine]
0.228 | CN[C@H]1CCN(c2ccnc(NCCc3ccccc3)c2)C1 [Example 245, 4-[(3S)-3-(Methylamino)pyrrolidin-1-yl]-N-(2-phenylethyl)pyridin-2-amine]
